Test results published in patent publication US20110123530A1, “COMPOSITIONS AND METHODS FOR TREATING AND DIAGNOSING ASTHMA” (priority 2008, published 2011).

Tests used:
[1] = tested on: healthy and asthmatic subjects; assay: Methacholine challenge testing (PC20, airway hyper-responsiveness); format: in vivo, human; details: median
Protocol: (§1) (A) Volume of air exhaled in the first second of a forced expiration (FEV1), a measure of airway obstruction. (B) Improvement in FEV1 after 4 puffs (360 μg) of albuterol (bronchodilator reversibility testing). (C) Provocative concentration of methacholine required to induce a 20% decline in FEV1 (PC20), a measure of airway hyper-responsiveness.
Healthy controls (N=27) had no history of lung disease and lacked airway hyper-responsiveness (PC20 methacholine >16 mg/mL). Certain studies included current smokers without asthma (N=16). Exclusion criteria for all subjects included upper respiratory tract infection in the previous 4 weeks, asthma exacerbation within 6 weeks and current use of salmeterol, astemizole, nedocromil sodium, sodium cromoglycate, methlyxanthines, montelukast or zafirlukast. Subjects underwent baseline evaluation by study physicians (including spirometry and methacholine challenge testing as described previously). Subjects also underwent allergen skin prick testing (ASPT) with a panel of 12 aeroallergens, a positive control and a negative control (Table 6).
The minimal concentration of methacholine in mg/ml required to induce a decrease in FEV1 of 20% (PC20, measured at a screening visit one week prior to bronchoscopy) is a measure of bronchial hyperresponsiveness. This is a measure of bronchial hyper-reactivity (BHR).
(§2) The asthmatic subjects were further analyzed with respect to additional demographic characteristics and clinical features as those described in Example 7. […] This difference in AHR was apparent despite inclusion criteria that required all asthmatics to have significant AHR (all asthmatics <8 mg/ml, all healthy controls >20 mg/ml).

[2] = tested on: healthy and asthmatic subjects; assay: Bronchodilator reversibility testing: improvement in FEV1 after albuterol; format: in vivo, human; details: 4 puffs (360 μg) of albuterol, mean ± SD
Protocol: as §1
For the purposes of identifying subsets of patients with asthma who differ with respect to the molecular mechanism underlying their airway inflammation and the distinct inflammatory, pathological and clinical phenotypes characteristic of these subsets, we first conducted new analyses on our previously generated epithelial cell microarray data, and we then supplemented these new analyses with review of additional and detailed clinical characterization data (including data on bronchodilator reversibility and allergen skin test reactivity) from these same subjects and newly generated data, including: (i) gene expression profiles in homogenates of bronchial biopsies and alveolar macrophages; (ii) quantitative measures of subepithelial collagen and airway epithelial mucin in bronchial biopsies; (iii) total and differential cell counts in BAL.
as §2

SMILES	Methacholine PC20 (provocative concentration required to cause a 20% decline in FEV1) ([1]; Healthy Control) [mg/mL]	Methacholine PC20 (provocative concentration required to cause a 20% decline in FEV1) ([1]; asthma, IL13 Signature Low) [mg/mL]	Methacholine PC20 (provocative concentration required to cause a 20% decline in FEV1) ([1]; asthma, IL-13 Signature High) [mg/mL]	ΔFEV1 with albuterol (% of baseline) ([2]; Healthy Control)	ΔFEV1 with albuterol (% of baseline) ([2]; asthma, IL13 Signature Low)	ΔFEV1 with albuterol (% of baseline) ([2]; asthma, IL-13 Signature High)
CC(=O)OC(C)C[N+](C)(C)C (stereo not drawn) [Methacholine, methacholine]	64	0.93	0.27	–	–	–
CC(C)(C)NCC(O)c1ccc(O)c(CO)c1 (stereo not drawn) [albuterol]	–	–	–	2.7 ± 3.4% of baseline	9.7 ± 7.4% of baseline	12.5 ± 9.8 % of baseline
